Patent publication US20230174484A1, “ANTAGONISTS OF GPR39 PROTEIN” (Oregon Health & Science University, priority 2020, published 2023)
Where a name gives a salt, the structure may show the parent alone.

Target: T1, human GPR39 receptor (Homo sapiens, UniProt O43194)
T1 construct: PC3 Cells, Expressing the Endogenous Human GPR39 Receptor; endogenous in cells; host or cells: PC3 (human prostate adenocarcinoma) cells
T1 sequence (O43194 1-453): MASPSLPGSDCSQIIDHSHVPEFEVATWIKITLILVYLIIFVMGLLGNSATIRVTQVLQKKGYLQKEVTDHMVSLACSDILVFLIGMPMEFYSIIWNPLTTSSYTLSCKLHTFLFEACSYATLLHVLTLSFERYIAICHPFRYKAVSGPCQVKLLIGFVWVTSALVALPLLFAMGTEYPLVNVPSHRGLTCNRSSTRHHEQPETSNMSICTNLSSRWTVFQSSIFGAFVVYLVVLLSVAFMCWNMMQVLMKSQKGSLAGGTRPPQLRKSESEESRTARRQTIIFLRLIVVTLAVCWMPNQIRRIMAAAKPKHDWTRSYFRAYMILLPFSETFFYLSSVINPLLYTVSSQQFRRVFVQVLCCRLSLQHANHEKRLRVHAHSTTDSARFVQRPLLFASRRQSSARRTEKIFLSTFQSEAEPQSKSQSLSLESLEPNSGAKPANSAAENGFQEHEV
Assay: Measurement of intracellular calcium response in PC3 cells (FLIPR), antagonism of the C3 agonist response
Assay type: cell-based
Details: functional pKi (modified Cheng-Prusoff), inhibition of the C3 (TC-G 1008) response at EC90, 30 μM ZnCl2, read-out: fpKi activity
Procedure, shortened: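 Potency was reported as fpKi, converted by modified Cheng-Prusoff from four-parameter IC50 fits against an EC90 C3 agonist challenge. Calcium-6 FLIPR readings used PC3 cells naturally expressing human GPR39, in pH 7.4 HEPES buffer containing 30 μM final ZnCl2. Score bands: +/± <5.2, + 5.2–5.9, ++ 6.0–6.5, +++ 6.6–7.2, ++++ ≥7.3.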

| Compound | Ki |
| --- | --- |
| Cc1nnc(-c2ccc(C(=O)N3CCN(C)CC3c3ccccc3)c(N3CCCC3)c2)[nH]1 (single isomer, unassigned) [Example 150a, (2R or 2S) (4-methyl-2-phenylpiperazin-1-yl)-[4-(5-methyl-4H-1,2,4-triazol-3-yl)-2-pyrrolidin-1-ylphenyl]methanone] | 63.1 to 251 nM |
| Cc1nnc(-c2ccc(C(=O)N3CCN(C)CC3c3ccccc3)c(N3CCCC3)c2)[nH]1 (single isomer, unassigned) [Example 150b, (2R or 2S) (4-methyl-2-phenylpiperazin-1-yl)-[4-(5-methyl-4H-1,2,4-triazol-3-yl)-2-pyrrolidin-1-ylphenyl]methanone] | 1260 to 6310 nM |
| CN1CCN(C(=O)c2ccc(-c3nnc(C4CC4)[nH]3)cc2N2CCCC2)C(c2ccccc2)C1 (single isomer, unassigned) [Example 151a, (2R or 2S) [4-(5-cyclopropyl-4H-1,2,4-triazol-3-yl)-2-pyrrolidin-1-ylphenyl]-(4-methyl-2-phenylpiperazin-1-yl)methanone] | 63.1 to 251 nM |
| CN1CCN(C(=O)c2ccc(-c3nnc(C4CC4)[nH]3)cc2N2CCCC2)C(c2ccccc2)C1 (single isomer, unassigned) [Example 151b, (2R or 2S) [4-(5-cyclopropyl-4H-1,2,4-triazol-3-yl)-2-pyrrolidin-1-ylphenyl]-(4-methyl-2-phenylpiperazin-1-yl)methanone] | 1260 to 6310 nM |
| Cc1ccn(-c2cc(NC(=O)C3CC3)ccc2C(=O)N2CCN(C)CC2c2ccccc2)n1 (single isomer, unassigned) [Example 155a, (2R or 2S) N-[4-(4-methyl-2-phenylpiperazine-1-carbonyl)-3-(3-methylpyrazol-1-yl)phenyl] cyclopropanecarboxamide] | 316 to 1000 nM |
| CN1CCN(C(=O)c2ccc(NC(=O)C3CC3)cc2N2CCCC2)C(c2ccccc2Cl)C1 (single isomer, unassigned) [Example 170a, (2R or 2S) N-[4-[2-(2-chlorophenyl)-4-methylpiperazine-1-carbonyl]-3-pyrrolidin-1-ylphenyl] cyclopropanecarboxamide] | ≤ 50.1 nM |
| CN1CCN(C(=O)c2ccc(NC(=O)C3CC3)cc2N2CCCC2)C(c2ccccc2Cl)C1 (single isomer, unassigned) [Example 170b, (2R or 2S) N-[4-[2-(2-chlorophenyl)-4-methylpiperazine-1-carbonyl]-3-pyrrolidin-1-ylphenyl]cyclopropanecarboxamide] | 316 to 1000 nM |
| CN1CCN(C(=O)c2ccc(NC(=O)C3CC3)cc2N2CCCC2)C(c2cccc(Cl)c2)C1 (single isomer, unassigned) [Example 171b, (2R or 2S) N-[4-[2-(3-chlorophenyl)-4-methylpiperazine-1-carbonyl]-3-pyrrolidin-1-ylphenyl] cyclopropanecarboxamide] | ≤ 50.1 nM |
| Cc1nnc(-c2ccc(C(=O)N3CCN(C)CC3c3ccccc3)c(N3CCC(C(F)(F)F)C3)c2)[nH]1 (single isomer, unassigned) [Example 177a, (2S, 3R) or (2R, 3S) or (2R, 3R) or (2S, 3S) (4-methyl-2-phenylpiperazin-1-yl)-[4-(5-methyl-4H-1,2,4-triazol-3-yl)-2-[3-(trifluoromethyl)pyrrolidin-1-yl]phenyl]methanone] | 63.1 to 251 nM |
| Cc1nnc(-c2ccc(C(=O)N3CCN(C)CC3c3ccccc3)c(N3CCC(C(F)(F)F)C3)c2)[nH]1 (single isomer, unassigned) [Example 177b, (2S, 3R) or (2R, 3S) or (2R, 3R) or (2S, 3S) (4-methyl-2-phenylpiperazin-1-yl)-[4-(5-methyl-4H-1,2,4-triazol-3-yl)-2-[3-(trifluoromethyl)pyrrolidin-1-yl]phenyl]methanone] | 316 to 1000 nM |
| Cc1nnc(-c2ccc(C(=O)N3CCN(C)CC3c3ccccc3)c(N3CCC(C(F)(F)F)C3)c2)[nH]1 (single isomer, unassigned) [Example 177c, (2S, 3R) or (2R, 3S) or (2R, 3R) or (2S, 3S) (4-methyl-2-phenylpiperazin-1-yl)-[4-(5-methyl-4H-1,2,4-triazol-3-yl)-2-[3-(trifluoromethyl)pyrrolidin-1-yl]phenyl]methanone] | ≤ 50.1 nM |
| Cc1nnc(-c2ccc(C(=O)N3CCN(C)CC3c3ccccc3)c(N3CCC(C(F)(F)F)C3)c2)[nH]1 (single isomer, unassigned) [Example 177d, (2S, 3R) or (2R, 3S) or (2R, 3R) or (2S, 3S) (4-methyl-2-phenylpiperazin-1-yl)-[4-(5-methyl-4H-1,2,4-triazol-3-yl)-2-[3-(trifluoromethyl)pyrrolidin-1-yl]phenyl]methanone] | 316 to 1000 nM |
| O=C(Nc1ccc(C(=O)N2CCS(=O)(=O)CC2)c(N2CCC(C(F)(F)F)C2)c1)C1CC1 (single isomer, unassigned) [Example 183a, N-[4-(1,1-dioxo-1,4-thiazinane-4-carbonyl)-3-[3r or 3S-(trifluoromethyl)pyrrolidin-1-yl]phenyl]cyclopropanecarboxamide] | ≤ 50.1 nM |
| O=C(Nc1ccc(C(=O)N2CCS(=O)(=O)CC2)c(N2CCC(C(F)(F)F)C2)c1)C1CC1 (single isomer, unassigned) [Example 183b, N-[4-(1,1-dioxo-1,4-thiazinane-4-carbonyl)-3-[3R or 3S-(trifluoromethyl)pyrrolidin-1-yl]phenyl]cyclopropanecarboxamide] | 63.1 to 251 nM |
| O=C(Nc1ccc(C(=O)N2CCS(=O)(=O)CC2)c(N2CCCC(C(F)(F)F)C2)c1)C1CC1 (single isomer, unassigned) [Example 185a, N-[4-(1,1-dioxo-1,4-thiazinane-4-carbonyl)-3-[3R or 3S-(trifluoromethyl)piperidin-1-yl]phenyl]cyclopropanecarboxamide] | 63.1 to 251 nM |
| O=C(Nc1ccc(C(=O)N2CCS(=O)(=O)CC2)c(N2CCCC(C(F)(F)F)C2)c1)C1CC1 (single isomer, unassigned) [Example 185b, N-[4-(1,1-dioxo-1,4-thiazinane-4-carbonyl)-3-[3R or 3S-(trifluoromethyl)piperidin-1-yl]phenyl]cyclopropanecarboxamide] | ≤ 50.1 nM |
| CN1CCN(C(=O)c2ccc(NC(=O)C3CC3)cc2N2CCC(C(F)(F)F)C2)C(c2ccccc2)C1 (single isomer, unassigned) [Example 199a, (2S, 3R) or (2R, 3S) or (2R, 3R) or (2S, 3S) N-[4-(4-methyl-2-phenylpiperazine-1-carbonyl)-3-[3-(trifluoromethyl)pyrrolidin-1-yl]phenyl]cyclopropanecarboxamide] | ≤ 50.1 nM |
| CN1CCN(C(=O)c2ccc(NC(=O)C3CC3)cc2N2CCC(C(F)(F)F)C2)C(c2ccccc2)C1 (single isomer, unassigned) [Example 199b, (2S, 3R) or (2R, 3S) or (2R, 3R) or (2S, 3S) N-[4-(4-methyl-2-phenylpiperazine-1-carbonyl)-3-[3-(trifluoromethyl)pyrrolidin-1-yl]phenyl]cyclopropanecarboxamide] | 316 to 1000 nM |
| CN1CCN(C(=O)c2ccc(NC(=O)C3CC3)cc2N2CCC(C(F)(F)F)C2)C(c2ccccc2)C1 (single isomer, unassigned) [Example 199c, (2S, 3R) or (2R, 3S) or (2R, 3R) or (2S, 3S) N-[4-(4-methyl-2-phenylpiperazine-1-carbonyl)-3-[3-(trifluoromethyl)pyrrolidin-1-yl]phenyl]cyclopropanecarboxamide] | 63.1 to 251 nM |
| CN1CCN(C(=O)c2ccc(NC(=O)C3CC3)cc2N2CCC(C(F)(F)F)C2)C(c2ccccc2)C1 (single isomer, unassigned) [Example 199d, (2S, 3R) or (2R, 3S) or (2R, 3R) or (2S, 3S) N-[4-(4-methyl-2-phenylpiperazine-1-carbonyl)-3-[3-(trifluoromethyl)pyrrolidin-1-yl]phenyl]cyclopropanecarboxamide] | 316 to 1000 nM |
| CN1CCN(C(=O)c2ccc(NC(=O)C3CC3)cc2N2CCC(C(F)(F)F)C2)C(c2ccccc2)C1 (single isomer, unassigned) [Example 199e, (2S, 3R) or (2R, 3S) or (2R, 3R) or (2S, 3S) N-[4-(4-methyl-2-phenylpiperazine-1-carbonyl)-3-[3-(trifluoromethyl)pyrrolidin-1-yl]phenyl]cyclopropanecarboxamide hydrochloride] | ≤ 50.1 nM |
| CN1CCN(C(=O)c2ccc(NC(=O)C3CC3)cc2N2CCCCC2)C(c2ccccc2)C1 (single isomer, unassigned) [Example 201a, N-[4-(4-methyl-(2R or 2S)-phenylpiperazine-1-carbonyl)-3-piperidin-1-ylphenyl]cyclopropanecarboxamide] | 63.1 to 251 nM |
| CN1CCN(C(=O)c2ccc(NC(=O)C3CC3)cc2N2CCC(F)(F)C2)C(c2ccccc2)C1 (single isomer, unassigned) [Example 202a, N-[3-(3,3-difluoropyrrolidin-1-yl)-4-(2R or 2S)-4-methyl-2-phenylpiperazine-1-carbonyl)phenyl]cyclopropanecarboxamide] | 1260 to 6310 nM |
